The subject of test [1] is RAW 264.7 (murine macrophages). The experiment in a line: Superoxide anion generation (DHE fluorescence) in murine macrophages stimulated with LPS. As to conditions: FIG. 3; LPS 25 μM/mL, 60 min; Ibu 10, 50, 100 μM alone; Arg 50 μM alone; PBS. The test is classed as cell-based. As to the method:
The selected method measures the fluorescence of DHE generated from its interaction with superoxide anion (O2^−) to determine the inhibitory effect of the different formulations on the generation of O2^− in murine macrophages that have been stimulated with LPS. This method has been selected because, as Chen et al. [Chen, J., et al. (2013). Analysis of kinetics of dihydroethidium fluorescence with superoxide using xanthine oxidase and hypoxanthine assay. […]
After this incubation, basal fluorescence was measured on a Fluoroskan Ascent plate reader, Labsystems using λex=485 nm and λem=538 nm. […] The fluorescence of the plate was then re-recorded using the same filter as in the basal condition.
For the analysis of the results, the value corresponding to the basal fluorescence for each well was subtracted from each final time value. […]
Murine macrophages were stimulated with LPS (25 μM/mL) and treated with arginine 50 μM alone or with different concentrations of alkaline hypertonic ibuprofen (10, 50, and 100 μM) in PBS saline solution. The cells were loaded with dihydroethidium (DHE) for 30 min at 37° C. and after 60 min of stimulation, normalized fluorescence was determined with the basal reading. […]

In test [2] the test system is patients with cystic fibrosis. Conditions: CF patients, cited from earlier work.

The text below walks through data of patent US12702644B2, “Pharmaceutical composition comprising ibuprofen and arginine” (priority 2021, dated 2026).

Regarding `CC(C)Cc1ccc(C(C)C(=O)O)cc1` (stereo not shown) [Ibuprofen], the “inhibition of LPS-stimulated generation of superoxide anion” value in test [1] is given as “not inhibited”.
Take `N=C(N)NCCC[C@H](N)C(=O)O` [L-arginine]: the “FEV1 increase (average)” value in test [2] (inhalation of 5 mL of 100 mg/mL twice daily, −8 ml after saline, difference not statistically significant) was 56 mL. Further, the “exhaled NO” value in test [2] (inhalation) was “significant increase”.
Consider `N=C(N)NCCC[C@H](N)C(=O)O` [Arginine], for which the “inhibition of LPS-stimulated generation of superoxide anion” value in test [1] was “not inhibited”.
